Legend:
[1] = Part A: PK of single-dose fruquintinib alone and with itraconazole (CYP3A inhibition); type: in vivo, human; conditions: for AUC(0-inf) / AUC(0-t) / Tmax / Cmax / half-life / t1/2: fruquintinib in plasma; for AUC(0-inf) / AUC(0-t) / Tmax / Cmax / half-life / t1/2 / CL/F (apparent oral clearance): Part A, n = 14; for AUC(0-inf) / AUC(0-t) / Cmax / half-life / t1/2 / CL/F (apparent oral clearance): arithmetic mean (SD); for Tmax: median (minimum‐maximum); for half-life: plasma; for CL/F (apparent oral clearance): fruquintinib
Text: (§1) This was a single‐center, open‐label, 2‐part (Part A and Part B), 2‐period, fixed‐sequence study conducted in healthy male and female subjects. Parts A and B evaluated the effect of the CYP3A inhibitor itraconazole and the CYP3A inducer rifampin on the PK profile of fruquintinib, respectively. Each part consisted of a screening phase, a treatment phase (Period 1 and Period 2), and an end‐of‐study (EOS) phase. Screening occurred within 21 days before the first study drug administration. There was at least a 14‐day washout of fruquintinib between treatment periods. PK samples were collected before dosing and over 168 hours following the fruquintinib dose in Part A (with itraconazole) and Part B (with rifampin). Part A and Part B were enrolled independently.
In Part A, subjects were administered fruquintinib alone in Treatment Period 1 and in combination with itraconazole in Treatment Period 2. Study Day 1 was considered the start of Treatment Period 1, and Study Day 15 was considered the start of Treatment Period 2. On Study Day 1, subjects received a single dose of fruquintinib 5 mg by mouth under fasted conditions (subjects fasted for at least 10 hours before fruquintinib dosing and 4 hours after), and on Study Day 19 subjects received a second single dose of fruquintinib 5 mg by mouth under fasted conditions, alongside itraconazole. On Study Day 15, subjects began a regimen of itraconazole 200 mg by mouth twice a day, followed by once daily dosing on Study Days 16‐25. A dose of 200 mg was selected, with a loading dose as part of a 5‐day lead‐in (twice daily for 1 day, once daily for 4 days) to achieve appropriate inhibition of CYP3A before dosing with fruquintinib.[10] Once‐daily dosing of itraconazole for an additional 5 days throughout the fruquintinib PK sampling period was continued to maintain CYP3A inhibition.[11]
As itraconazole oral bioavailability is maximal when the capsules are taken immediately after a full meal,[12] it was administered under fed conditions except when coadministered with fruquintinib on Study Day 19. Itraconazole doses were administered 30 minutes after the start of breakfast on Study Days 15‐18 and Study Days 20‐25. On Study Day 19, subjects received both treatments under fasted conditions, and itraconazole was administered 1 hour before administration of a single dose of fruquintinib 5 mg by mouth. Subjects were discharged after completion of EOS procedures on Study Day 26 or at early withdrawal.
(§2) Blood samples for determination of fruquintinib and metabolite M11 plasma concentrations were collected before dosing and at 0.5, 1, 1.5, 2, 3, 4, 6, 8, 12, 24, 36, 48, 72, 96, 120, 144, and 168 hours after fruquintinib dosing. Plasma samples were analyzed by LabCorp Bioanalytical (Indianapolis, IN) using a validated liquid chromatography with tandem mass spectrometry assay method with an analytical range of 1.00 ng/mL (lower limit of quantitation) to 750 ng/mL (upper limit of quantitation) for both fruquintinib and M11.[6] Interrun variability was 6.3% or less and 13.8% or less for fruquintinib and M11, respectively. Quality control samples at 4 concentrations (3, 30, 300, and 600 ng/mL) were assayed along with study samples, and the bias quality control sample concentrations deviated by ±2.0% and ±2.7% from the nominal concentrations for fruquintinib and M11, respectively.
PK parameters were determined by noncompartmental analysis and included maximum plasma concentration (Cmax); time to reach Cmax (tmax); area under the plasma concentration‐time curve (AUC) from time 0 to the time of the last measurable concentration (AUC0‐t); AUC from time 0 to infinity (AUC0‐inf); half‐life (t1/2); and the metabolite‐to‐parent ratios for Cmax, AUC0‐t, and AUC0‐inf. Apparent oral clearance and volume of distribution were also estimated for fruquintinib. […]

P‐gp = conditions: no reference given; cited from earlier work
[2] = Part B: PK of single-dose fruquintinib alone and with rifampin (CYP3A induction); type: in vivo, human; conditions: for AUC(0-inf) / AUC(0-t) / Cmax / half-life / Tmax / t1/2: fruquintinib in plasma; for AUC(0-inf) / AUC(0-t) / Cmax / half-life / Tmax / t1/2 / CL/F (apparent oral clearance): Part B; for AUC(0-inf) / AUC(0-t) / Cmax / half-life / t1/2 / CL/F (apparent oral clearance): arithmetic mean (SD); for half-life / Tmax: plasma; for Tmax: median (minimum‐maximum), read-out: tmax; for CL/F (apparent oral clearance): fruquintinib
Text: as §1
In Part B, subjects were administered fruquintinib alone in Treatment Period 1 and in combination with rifampin in Treatment Period 2. Study Day 1 was considered as the start of Treatment Period 1, and Study Day 8 was considered as the start of Treatment Period 2. On Study Day 1, a single dose of fruquintinib 5 mg by mouth was administered under fasted conditions, and on Study Day 15, a single dose of fruquintinib 5 mg was administered by mouth under fasted conditions alongside rifampin. Starting on Study Day 8, rifampin 600 mg was dosed by mouth once daily for 14 consecutive days, 7 days before fruquintinib dosing and 6 days after fruquintinib dosing, to ensure that induction was maintained throughout the PK sampling period. Subjects therefore received rifampin from Study Day 8 to Study Day 21. Absorption of rifampin is reduced by approximately 30% when the drug is ingested with food.[13] Therefore, rifampin was administered at least 1 hour before breakfast when given alone and under fasted conditions when administered with fruquintinib. Breakfast was given at least 1 hour after the rifampin doses on Study Days 8‐14 and Study Days 16‐21. On Study Day 15, subjects received both treatments under fasted conditions, and rifampin was administered 1hour before administration of a single dose of fruquintinib 5 mg by mouth. Subjects were discharged after completion of EOS procedures on Study Day 22 or at early withdrawal.
as §2
PK parameters were determined by noncompartmental analysis and included maximum plasma concentration (Cmax); time to reach Cmax (tmax); area under the plasma concentration‐time curve (AUC) from time 0 to the time of the last measurable concentration (AUC0‐t); AUC from time 0 to infinity (AUC0‐inf); half‐life (t1/2); and the metabolite‐to‐parent ratios for Cmax, AUC0‐t, and AUC0‐inf. Apparent oral clearance and volume of distribution were also estimated for fruquintinib.
For Part A, the effect of itraconazole based on the PK parameters of fruquintinib was evaluated using a linear mixed‐effect model with treatment (ie, fruquintinib with itraconazole [test] and fruquintinib alone [reference]) as fixed effects and subject as a random effect. A similar inferential analysis was performed for Part B, but fruquintinib with rifampin was the test group. […]

[3] = both sexes, human, oral, fruquintinib 5 mg + itraconazole 200 mg
[4] = both sexes, human, oral, fruquintinib alone 5 mg
[5] = fruquintinib 5 mg + itraconazole 200 mg
[6] = both sexes, human, oral, fruquintinib 5 mg + rifampin 600 mg, n = 13
[7] = both sexes, human, oral, fruquintinib alone 5 mg, n = 13
[8] = fruquintinib 5 mg + rifampin 600 mg, n = 13
[9] = fruquintinib alone 5 mg, n = 13

AUC(0-inf) [1, 3]: 6460 ng·h/mL
AUC(0-t) [1, 3]: 6040 ng·h/mL
Tmax [1, 3]: 4 h
AUC(0-inf) [1, 4]: 5960 ng·h/mL
AUC(0-t) [1, 4]: 5730 ng·h/mL
Tmax [1, 4]: 2 h
Cmax ([1]; both sexes, human, oral, fruquintinib alone, single 5 mg by mouth, fasted, read-out: Cmax): 133 ng/mL
half-life ([1]; both sexes, human, oral, 5 mg, fruquintinib alone 5 mg): ~34 h
half-life [1, 3]: ~41 h
increase of fruquintinib AUCs ([1]; coadministration with itraconazole versus fruquintinib alone): approximately 10%
delay of median tmax of fruquintinib ([1]; following coadministration of itraconazole): 2 h
Cmax [1, 5]: 122 (22.8) ng/mL
t1/2 [1, 5]: 41.4 (5.96) hour
t1/2 ([1]; fruquintinib alone 5 mg): 33.9 (6.96) hour
CL/F (apparent oral clearance) [1, 5]: 13.3 (2.59) mL/min
CL/F (apparent oral clearance) ([1]; fruquintinib alone 5 mg): 14.9 (4.14) mL/min
AUC(0-inf) [2, 6]: 2070 ng·h/mL
AUC(0-t) [2, 6]: 2020 ng·h/mL
Cmax ([2]; both sexes, human, oral, fruquintinib 5 mg + rifampin 600 mg, n = 13, read-out: Cmax): 108 ng/mL
AUC(0-inf) [2, 7]: 5890 ng·h/mL
AUC(0-t) [2, 7]: 5640 ng·h/mL
half-life ([2]; both sexes, human, oral, 5 mg, fruquintinib alone 5 mg, n = 13): ~34 h
Tmax ([2]; both sexes, human, oral, 5 mg, fruquintinib alone 5 mg, n = 14): 3.33 h
half-life [2, 6]: ~14 h
Tmax [2, 6]: 3 h
reduction of fruquintinib AUCs (AUC0‐t and AUC0‐inf) ([2]; coadministration with rifampin versus fruquintinib alone): 65%
t1/2 [2, 8]: 14.0 (3.06) hour
t1/2 [2, 9]: 33.9 (7.76) hour
Cmax ([2]; fruquintinib alone, single 5 mg by mouth, fasted, n = 14): 123 (25.5) ng/mL
CL/F (apparent oral clearance) [2, 8]: 41.9 (7.46) mL/min
CL/F (apparent oral clearance) [2, 9]: 14.5 (2.22) mL/min
Structure (SMILES): CNC(=O)c1c(C)oc2cc(Oc3ncnc4cc(OC)c(OC)cc34)ccc12 [Fruquintinib]
P‐gp substrate (P‐gp): not a P‐gp substrate

From PMC12314110, “Evaluation of Potential Effects of CYP3A Inhibition and CYP3A Induction on the Pharmacokinetics of Fruquintinib in Healthy Subjects” (Clinical Pharmacology in Drug Development, 2025)
